The text below walks through data of article doi:10.1101/2025.08.13.670122v1 (bioRxiv, 2025).

The assay deals with T1, AT1R (Homo sapiens, UniProt P30556).
T1 sequence (P30556 1-359): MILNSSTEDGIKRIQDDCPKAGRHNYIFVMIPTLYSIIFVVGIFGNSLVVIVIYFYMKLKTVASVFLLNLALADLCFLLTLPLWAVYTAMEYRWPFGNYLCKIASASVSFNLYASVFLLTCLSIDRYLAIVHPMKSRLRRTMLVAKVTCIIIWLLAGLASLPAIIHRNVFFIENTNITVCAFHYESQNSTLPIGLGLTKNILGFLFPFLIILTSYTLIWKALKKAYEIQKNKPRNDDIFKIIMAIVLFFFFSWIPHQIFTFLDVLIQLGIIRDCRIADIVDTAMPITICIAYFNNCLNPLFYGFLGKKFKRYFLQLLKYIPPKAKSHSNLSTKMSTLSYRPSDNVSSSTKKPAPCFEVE
As to the kind of experiment: PKC BRET sensor in HEK293 cells expressing AT1R. It counts as cell-based. Set-up: expressed in transfected cells; host or cells: HEK293 cells, transient PEI transfection. The following applies: for Emax PKC (% AngII): PKC BRET sensor, response at 10 μM, normalised to AngII; for EC50: PKC-c1b BRET sensor, read 10 min after ligand, mean ± SEM of at least three to five independent experiments, SEM. An excerpt:
We utilized a clonal cell line HEK293, referred to hereafter as HEK293 cells, which has been previously described.[7],[8] As a gracious gift from A. Inoue (Tohoku University, Sendai, Miyagi, Japan), CRISPR Gαq/11 and Gα12/13 knockout cell lines (ΔGq/11 and ΔG12/13, respectively), were derived as previously explained.[48] In brief, a CRISPR-Cas9 system was used to target either GNAQ and GNA11 or GNA12 and GNA13 genes in HEK293T cells simultaneously to generate the Gαq/11 and Gα12/13 knockout cell lines. For the production of adenovirus, we utilized HEK293A cells. All cells were grown in DMEM supplemented with 10% FBS and Penicillin-Streptomycin-L-Glutamine (10000 IU penicillin, 10000 µg/mL Streptomycin, 200 mM L-Glutamine) at 37°C in T175 flasks under a 5% CO2 humidified chamber. Periodic testing was carried out for mycoplasma contamination (ABM™, Mycoplasma PCR Detection kit). For all biosensors used, cells underwent transfection with the PEI reagent, employing a PEI:DNA ratio of 3:1. For the Gαq biosensor, HEK293 cells were transfected with the plasmids coding for Gαq-RLucII (120 ng), Gβ1 (3000 ng), Gγ1-GFP10 (3000 ng), human AT1 (3000 ng) and Salmon sperm DNA (SSD) (880 ng). For the β-arrestin2 recruitment assay, HEK293 cells were transfected with the plasmids coding for 120 ng β-arrestin-2-RLucII, 3000 ng AT1, 3000 ng rGFP-CAAX, and 3880 ng SSD. For the measurement of PKC, HEK293 cells were transfected with 3000 ng AT1, 600 ng PKC-c1b, and 6400 ng SSD. […] 100 µL of the cell/DNA mixture was added to white 96-well plates and incubated at 37°C at 5% CO2 for 48 h. For the Rho assay, ΔG12/13 cells were seeded at a density of 9,000 cells per well in poly-ornithine-coated white 96-well plates and transfected the following day. In brief, 1 μg of total DNA in 100 μL of PBS was mixed with 100 μL of PBS containing 3 μL of 1 mg/mL PEI. For Rho signaling, 150 ng of AT1R DNA with 25 ng of PKN-RBD-RlucII [8], and 100 ng of rGFP-CAAX were used. Empty pcDNA was used to reach 1 µg of the total DNA amount in 100 μL of PBS. The DNA was then mixed with 100 μL of PBS containing 3 μL of 1 mg/mL PEI. After a 20-min incubation, the DNA/PEI complexes were dispensed into cells in 96-well plates (15 µL/well), and the experiment was carried out 48 h post-transfection.
On the day of the experiment, each well was washed with 80 µL of Tyrode’s buffer (140 mM NaCl, 2.7 mM KCl, 1 mM CaCl2, 12 mM NaHCO3, 5.6 mM D-glucose, 0.5 mM MgCl2, 0.37 mM NaH2PO4, 25 mM Hepes (pH 7.4)). This was followed by incubation for 1 h in Tyrode’s buffer at room temperature. […] Cells were then stimulated with increasing doses of the indicated ligand, and BRET signals were measured using a Tristar2 (Berthold) microplate reader 10 min later. […] BRET signals were then measured using a Synergy2 (BioTek) microplate reader. […]
(In general: Bioluminescence resonance energy transfer reports proximity on the nanometre scale.)

In the case of `CC[C@H](C)[C@H](NC(=O)[C@H](Cc1ccc(O)cc1)NC(=O)[C@@H](NC(=O)[C@H](CCCNC(=N)N)NC(=O)[C@@H](N)CC(=O)O)C(C)C)C(=O)N[C@@H](Cc1c[nH]cn1)C(=O)N1CCC[C@H]1C(=O)N[C@@H](Cc1ccc(OC)cc1)C(=O)O` [compound 11], the “Emax PKC (% AngII)” value turned out to be 105 % AngII and the EC50 was 0.66 ± 0.13 nM.

For the molecule `CC[C@H](C)[C@H](NC(=O)[C@H](Cc1ccc(O)cc1)NC(=O)[C@@H](NC(=O)[C@H](CCCNC(=N)N)NC(=O)[C@@H](N)CC(=O)O)C(C)C)C(=O)N[C@@H](Cc1c[nH]cn1)C(=O)N1CCC[C@H]1C(=O)N[C@@H](Cc1ccc(OCc2ccccc2)cc1)C(=O)O` [compound 12], the “Emax PKC (% AngII)” value was 51 % AngII and the EC50 was 4.8 ± 3.4 nM.

One may read the EC50 as the concentration giving half of the maximal effect.
